Reference: patent US12577231B2, “Androgen receptor PROTACS” (GlaxoSmithKline Intellectual Property Development Limited, priority 2023, dated 2026)

molecular target: T1, Androgen Receptor protein in human LnCaP cells (Homo sapiens, UniProt P10275, T878A); assay: Androgen Receptor Degradation Assay (Nano-Glo HiBiT, LnCaP cells); format: cell-based; details: 18 h, HiBiT-tagged AR LnCaP cells, 18 h incubation, fitted curve asymptote maximum of degradation, read-out: mean asymptote max
T1 construct: the AR gene was modified, using CRISPR/Cas9 editing, so the expressed AR protein included an 11 amino acid HiBiT tag; endogenous in cells; host or cells: clonal LnCaP derived cell line, endogenous AR gene edited by CRISPR/Cas9
T1 sequence (P10275 1-920 T878A): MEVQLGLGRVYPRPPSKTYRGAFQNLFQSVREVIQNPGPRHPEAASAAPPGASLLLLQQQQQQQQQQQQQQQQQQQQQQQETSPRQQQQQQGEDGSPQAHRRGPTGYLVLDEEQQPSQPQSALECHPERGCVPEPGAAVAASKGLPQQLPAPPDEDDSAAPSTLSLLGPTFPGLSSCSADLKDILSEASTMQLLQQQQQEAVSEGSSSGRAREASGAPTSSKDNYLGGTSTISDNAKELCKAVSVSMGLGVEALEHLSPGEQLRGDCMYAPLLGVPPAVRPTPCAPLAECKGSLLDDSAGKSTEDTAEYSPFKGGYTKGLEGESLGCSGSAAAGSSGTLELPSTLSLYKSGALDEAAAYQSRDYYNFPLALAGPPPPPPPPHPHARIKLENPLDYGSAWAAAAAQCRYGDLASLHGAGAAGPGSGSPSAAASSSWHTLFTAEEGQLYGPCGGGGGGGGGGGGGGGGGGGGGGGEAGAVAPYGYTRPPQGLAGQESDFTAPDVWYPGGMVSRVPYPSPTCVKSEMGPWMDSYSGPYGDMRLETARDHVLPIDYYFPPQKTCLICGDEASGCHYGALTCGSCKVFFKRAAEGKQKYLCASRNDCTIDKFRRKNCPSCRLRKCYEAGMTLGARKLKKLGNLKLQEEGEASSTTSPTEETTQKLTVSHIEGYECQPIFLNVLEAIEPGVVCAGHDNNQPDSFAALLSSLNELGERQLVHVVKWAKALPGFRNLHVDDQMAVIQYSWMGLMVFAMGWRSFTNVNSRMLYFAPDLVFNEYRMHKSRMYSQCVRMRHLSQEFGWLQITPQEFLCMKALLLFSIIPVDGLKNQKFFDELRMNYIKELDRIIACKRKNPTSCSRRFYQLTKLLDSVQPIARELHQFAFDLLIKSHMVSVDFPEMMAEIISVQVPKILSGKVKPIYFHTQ
Description: Degradation of Androgen Receptor protein in human LnCaP cells treated with PROTACs was quantified using the Nano-Glo® HiBiT Lytic Detection System (Promega) in 384 well assay plate format. A clonal LnCaP derived cell line was first established in which the AR gene was modified, using CRISPR/Cas9 editing, so the expressed AR protein included an 11 amino acid HiBiT tag at its amino-terminus. 10 mM DMSO stock solutions of PROTACs were prepared and diluted across an 11 concentration, 3 fold increment range, and 25 nL dispensed into a white opaque bottomed 384 well assay plate (Thermofisher) using an acoustic ECHO dispenser (Labcyte). Cells were grown in cell culture medium (RPMI 1640 supplemented with 15% FBS, penicillin 50U/mL and streptomycin 50 ug/mL (Thermofisher)). For the assay, cells were detached from flask and resuspended with assay medium (FluoroBrite™ DMEM supplemented with 10% heat inactivated FBS, penicillin 50U/mL and streptomycin 50 ug/mL (Thermofisher)). The cell suspension was centrifuged at 400 g for 5 min and the pellet resuspended in assay medium. 25 μL of cell suspension containing 10,000 cells was dispensed into each well of the assay plate containing a serial dilution of test compounds, which was then incubated for 18 h at 37° C./5% CO2. Control wells were included on each assay plate, with assay medium without cells being the no AR remaining 100% effect control, and cells treated with DMSO vehicle only, without PROTAC, the 0% effect control. 25 μL of Nano-Glo® HiBiT lysis buffer supplemented with LgBiT protein and Nano-Glo® substrate (Promega) was added to each well and the plate shaken at 500 rpm for 10 min at room temperature. The intensity of luminescence was measured using a PHERAstar microplate reader (BMG Labtech) and the % AR protein remaining in each well calculated by normalising the raw luminescence value to the above control wells. Parameters corresponding to the potency and efficacy estimates of the PROTACs were obtained from these normalised luminescence values using software (IDBS ActivityBase). These included the DC50 (concentration at which 50% of protein was degraded in M) and the Dmax (maximal degradation, in %) estimates. Two versions of the DC50, called relative DC50 and absolute DC50, were generated. These are the inflection point of a fitted 4 parameter sigmoidal response curve and the interpolated concentration of PROTAC corresponding to 50% of the protein being degraded, respectively. The corresponding pDC50 is reported as −log10(relative […]). The Dmax parameter was the maximum experimentally observed degradation and the asymptote max parameter the fitted response curve asymptote maximum.

Dmax, ≥ 50%:
CC1(C)[C@H](NC(=O)c2ccc(N3CCC(CN4CCC(n5ncc6c(N7CCC(=O)NC7=O)cc(F)cc65)CC4)CC3)c(F)c2)C(C)(C)[C@H]1Oc1ccc(C#N)c2ncccc12 [Example 38, N-((1r,3r)-3-((8-Cyanoquinolin-5-yl)oxy)-2,2,4,4-tetramethylcyclobutyl)-4-(4-((4-(4-(2,4-dioxotetrahydropyrimidin-1(2H)-yl)-6-fluoro-1H-indazol-1-yl)piperidin-1-yl)methyl)piperidin-1-yl)-3-fluorobenzamide]
CC1(C)[C@H](NC(=O)c2ccc(N3CCC(CN4CCC(n5ncc6c(N7CCC(=O)NC7=O)nccc65)CC4)CC3)c(F)c2)C(C)(C)[C@H]1Oc1ccc(C#N)c2ncccc12 [Example 39, N-((1r,3r)-3-((8-Cyanoquinolin-5-yl)oxy)-2,2,4,4-tetramethylcyclobutyl)-4-(4-((4-(4-(2,4-dioxotetrahydropyrimidin-1(2H)-yl)-1H-pyrazolo[4,3-c]pyridin-1-yl)piperidin-1-yl)methyl)piperidin-1-yl)-3-fluorobenzamide]
CC1(C)[C@H](NC(=O)c2ccc(N3CCC(CN4CCC(n5ncc6c(N7CCC(=O)NC7=O)ccnc65)CC4)CC3)c(F)c2)C(C)(C)[C@H]1Oc1ccc(C#N)c2ncccc12 [Example 40, N-((1r,3r)-3-((8-Cyanoquinolin-5-yl)oxy)-2,2,4,4-tetramethylcyclobutyl)-4-(4-((4-(4-(2,4-dioxotetrahydropyrimidin-1(2H)-yl)-1H-pyrazolo[3,4-b]pyridin-1-yl)piperidin-1-yl)methyl)piperidin-1-yl)-3-fluorobenzamide]
CC1(C)[C@H](NC(=O)c2ccc(N3CCC(CN4CCC(n5ncc6c(N7CCC(=O)NC7=O)cc(Cl)cc65)CC4)CC3)c(F)c2)C(C)(C)[C@H]1Oc1ccc(C#N)c2ncccc12 [Example 41, 4-(4-((4-(6-Chloro-4-(2,4-dioxotetrahydropyrimidin-1(2H)-yl)-1H-indazol-1-yl)piperidin-1-yl)methyl)piperidin-1-yl)-/-((1r,3r)-3-((8-cyanoquinolin-5-yl)oxy)-2,2,4,4-tetramethylcyclobutyl)-3-fluorobenzamide]
CC1(C)[C@H](NC(=O)c2ccc(N3CCC(CN4CCC(n5ncc6c(N7CCC(=O)NC7=O)cc(C(F)(F)F)cc65)CC4)CC3)c(F)c2)C(C)(C)[C@H]1Oc1ccc(C#N)c2ncccc12 [Example 42, N-((1r,3r)-3-((8-Cyanoquinolin-5-yl)oxy)-2,2,4,4-tetramethylcyclobutyl)-4-(4-((4-(4-(2,4-dioxotetrahydropyrimidin-1(2H)-yl)-6-(trifluoromethyl)-1H-indazol-1-yl)piperidin-1-yl)methyl)piperidin-1-yl)-3-fluorobenzamide]
CC1(C)[C@H](NC(=O)c2ccc(N3CCC(CN4CCC(n5ncc6c(N7CCC(=O)NC7=O)cccc65)CC4)CC3)c(Cl)c2)C(C)(C)[C@H]1Oc1ccc(C#N)c2ncccc12 [Example 44, 3-Chloro-N-((1r,3r)-3-((8-cyanoquinolin-5-yl)oxy)-2,2,4,4-tetramethylcyclobutyl)-4-(4-((4-(4-(2,4-dioxotetrahydropyrimidin-1(2H)-yl)-1H-indazol-1-yl)piperidin-1-yl)methyl)piperidin-1-yl)benzamide]
CC1(C)[C@H](NC(=O)c2ccc(N3CCC(CN4CC[C@@H](n5ncc6c(N7CCC(=O)NC7=O)cccc65)[C@@H](F)C4)CC3)c(F)c2)C(C)(C)[C@H]1Oc1ccc(C#N)c2ncccc12 [Example 45, N-((1r,3r)-3-((8-Cyanoquinolin-5-yl)oxy)-2,2,4,4-tetramethylcyclobutyl)-4-(4-(((35,4R)-4-(4-(2,4-dioxotetrahydropyrimidin-1(2H)-yl)-1H-indazol-1-yl)-3-fluoropiperidin-1-yl)methyl)piperidin-1-yl)-3-fluorobenzamide]
CC1(C)[C@H](NC(=O)c2ccc(N3CCC(CN4CC[C@H](n5ncc6c(N7CCC(=O)NC7=O)cccc65)[C@H](F)C4)CC3)c(F)c2)C(C)(C)[C@H]1Oc1ccc(C#N)c2ncccc12 [Example 46, N-((1r,3r)-3-((8-Cyanoquinolin-5-yl)oxy)-2,2,4,4-tetramethylcyclobutyl)-4-(4-(((3R,4S)-4-(4-(2,4-dioxotetrahydropyrimidin-1(2H)-yl)-1H-indazol-1-yl)-3-fluoropiperidin-1-yl)methyl)piperidin-1-yl)-3-fluorobenzamide]
CC1(C)[C@H](NC(=O)c2ccc(N3CCC(CN4CCC(n5ccc6c(N7CCC(=O)NC7=O)ncnc65)CC4)CC3)c(F)c2)C(C)(C)[C@H]1Oc1ccc(C#N)c2ncccc12 [Example 47, N-((1r,3r)-3-((8-Cyanoquinolin-5-yl)oxy)-2,2,4,4-tetramethylcyclobutyl)-4-(4-((4-(4-(2,4-dioxotetrahydropyrimidin-1(2H)-yl)-7H-pyrrolo[2,3-d]pyrimidin-7-yl)piperidin-1-yl)methyl)piperidin-1-yl)-3-fluorobenzamide]
CC1(C)[C@H](NC(=O)c2ccc(N3CCC(O)(CN4CCC(n5ncc6c(N7CCC(=O)NC7=O)cccc65)CC4)CC3)c(F)c2)C(C)(C)[C@H]1Oc1ccc(C#N)c2ncccc12 [Example 48, N-((1r,3r)-3-((8-Cyanoquinolin-5-yl)oxy)-2,2,4,4-tetramethylcyclobutyl)-4-(4-((4-(4-(2,4-dioxotetrahydropyrimidin-1(2H)-yl)-1H-indazol-1-yl)piperidin-1-yl)methyl)-4-hydroxypiperidin-1-yl)-3-fluorobenzamide]
CC1(C)[C@H](NC(=O)c2ccc(N3CCC(CN4CCC(n5ncc6c(N7CCC(=O)NC7=O)c(F)ccc65)CC4)CC3)c(F)c2)C(C)(C)[C@H]1Oc1ccc(C#N)c2ncccc12 [Example 50, N-((1r,3r)-3-((8-Cyanoquinolin-5-yl)oxy)-2,2,4,4-tetramethylcyclobutyl)-4-(4-((4-(4-(2,4-dioxotetrahydropyrimidin-1(2H)-yl)-5-fluoro-1H-indazol-1-yl)piperidin-1-yl)methyl)piperidin-1-yl)-3-fluorobenzamide]
CC1(C)[C@H](NC(=O)c2ccc(N3CCC(CN4CCC(n5ccc6c(N7CCC(=O)NC7=O)c(F)ccc65)CC4)CC3)c(F)c2)C(C)(C)[C@H]1Oc1ccc(C#N)c2ncccc12 [Example 51, N-((1r,3r)-3-((8-Cyanoquinolin-5-yl)oxy)-2,2,4,4-tetramethylcyclobutyl)-4-(4-((4-(4-(2,4-dioxotetrahydropyrimidin-1(2H)-yl)-5-fluoro-1H-indol-1-yl)piperidin-1-yl)methyl)piperidin-1-yl)-3-fluorobenzamide]
